Several values for one entry are separate records, joined by “and”; a condition that tells them apart may be missing. Identical values can stand only once.
Tested on: GEMS receptors with CBPvene (Bcl2–LD3 and Bcl2high variants), STAT3-driven SEAP in HEK293T cells
Assay: GEMS SEAP reporter assay, CBPvene (Bcl2high, LD3-v and Bcl2-v variants) with venetoclax
Assay type: cell-based
Conditions: for SEAP / SEAP normalized (max=100): Supp Fig 10a
[1] = CBPVene-v5-Bcl2v2, Venetoclax 1000 nM
[2] = CBPVene-v5-Bcl2v2, Venetoclax 3160 nM
[3] = CBPVene-v5-Bcl2v2, Venetoclax 10000 nM
[4] = CBPVene-v5-LD3v1, Venetoclax 1 nM
[5] = CBPVene-v5-LD3v1, Venetoclax 3.16 nM
[6] = CBPVene-v5-LD3v1, Venetoclax 10 nM
[7] = CBPVene-v5-LD3v1, Venetoclax 31.6 nM
[8] = CBPVene-v5-LD3v1, Venetoclax 316 nM
[9] = CBPVene-v5-LD3v1, Venetoclax 1000 nM
[10] = CBPVene-v5-LD3v1, Venetoclax 10000 nM

Structure (SMILES): CC1(C)CCC(CN2CCN(c3ccc(C(=O)NS(=O)(=O)c4ccc(NCC5CCOCC5)c([N+](=O)[O-])c4)c(Oc4cnc5[nH]ccc5c4)c3)CC2)=C(c2ccc(Cl)cc2)C1 [Venetoclax]
- Normalized data Figure 5f [1]: 77.3797 and 77.4841 and 64.4738
- Raw data Figure 5f [1]: 141.449 and 149.007 and 144.09
- Normalized data Figure 5f [2]: 35.229 and 32.7238 and 23.2546
- Raw data Figure 5f [2]: 64.398 and 62.9303 and 51.9708
- Normalized data Figure 5f [3]: 15.1423 and 11.3283 and 13.9843
- Raw data Figure 5f [3]: 27.6798 and 21.7852 and 31.253
- Raw data of Independent repeat of CBPVene-v5 vs CBPVene-v5-LD3v1 (CBPVene-v5-LD3v1, Venetoclax 0.01 nM): 12.511 and 11.9088 and 12.8792
- Normalized data Figure 5c [4]: 16.3682 and 15.9533 and 20.5713
- Raw data Figure 5c [4]: 17.8707 and 19.0514 and 21.7836
- Raw data of Independent repeat of CBPVene-v5 vs CBPVene-v5-LD3v1 [4]: 12.1852 and 11.7838 and 11.0502
- Normalized data Figure 5c [5]: 15.1322 and 15.2538 and 18.8062
- Raw data Figure 5c [5]: 16.5212 and 18.216 and 19.9144
- Raw data of Independent repeat of CBPVene-v5 vs CBPVene-v5-LD3v1 [5]: 10.1265 and 10.196 and 11.563
- Normalized data Figure 5c [6]: 22.3408 and 21.0089 and 24.5666
- Raw data Figure 5c [6]: 24.3915 and 25.0888 and 26.0143
- Raw data of Independent repeat of CBPVene-v5 vs CBPVene-v5-LD3v1 [6]: 13.7645 and 12.6779 and 10.7132
- Normalized data Figure 5c [7]: 35.5947 and 28.4669 and 38.0182
- Raw data Figure 5c [7]: 38.8619 and 33.9951 and 40.2586
- Raw data of Independent repeat of CBPVene-v5 vs CBPVene-v5-LD3v1 [7]: 17.7633 and 18.8924 and 25.5
- Raw data of Independent repeat of CBPVene-v5 vs CBPVene-v5-LD3v1 (CBPVene-v5-LD3v1, Venetoclax 100 nM): 38.3822 and 37.0306 and 47.6081
- Normalized data Figure 5c [8]: 100
- Raw data Figure 5c [8]: 109.179 and 119.42 and 105.893
- Raw data of Independent repeat of CBPVene-v5 vs CBPVene-v5-LD3v1 [8]: 60.7806 and 63.7576 and 57.9589
- Normalized data Figure 5c [9]: 77.7899 and 68.2523 and 65.7986
- Raw data Figure 5c [9]: 84.9301 and 81.5067 and 69.6762
- Raw data of Independent repeat of CBPVene-v5 vs CBPVene-v5-LD3v1 [9]: 40.6135 and 38.6218 and 45.893
- Raw data of Independent repeat of CBPVene-v5 vs CBPVene-v5-LD3v1 (CBPVene-v5-LD3v1, Venetoclax 3160 nM): 20.9864 and 23.9183 and 23.9906
- Normalized data Figure 5c [10]: 10.3166 and 8.27 and 9.621
- Raw data Figure 5c [10]: 11.2636 and 9.876 and 10.1879
- SEAP (U/L) (Figure 4h, Venetoclax 1 nM, representative data and independent repeats 1, 2 (triplicates)): 40.3558 U/L and 36.3798 U/L and 44.7796 U/L and 29.5956 U/L and 26.0853 U/L and 29.9849 U/L
- SEAP (Bcl2-v1, venetoclax 316 nM): 16.9918
- SEAP normalized (max=100) (Bcl2-v1, venetoclax 316 nM): 72.9686
- SEAP (Bcl2-v1, venetoclax 1000 nM): 11.8168
- SEAP normalized (max=100) (Bcl2-v1, venetoclax 1000 nM): 50.7451
- SEAP (Bcl2-v1, venetoclax 3160 nM): 18.4889
- SEAP normalized (max=100) (Bcl2-v1, venetoclax 3160 nM): 79.3975
- SEAP (Bcl2-v1, venetoclax 10000 nM): 5.997
- SEAP normalized (max=100) (Bcl2-v1, venetoclax 10000 nM): 25.7548
- SEAP (Bcl2-v2, venetoclax 316 nM): 33.4045
- SEAP normalized (max=100) (Bcl2-v2, venetoclax 316 nM): 100
- SEAP (Bcl2-v2, venetoclax 1000 nM): 18.2725
- SEAP normalized (max=100) (Bcl2-v2, venetoclax 1000 nM): 54.7009
- SEAP (Bcl2-v2, venetoclax 3160 nM): 17.6043
- SEAP normalized (max=100) (Bcl2-v2, venetoclax 3160 nM): 52.7004
- SEAP (Bcl2-v2, venetoclax 10000 nM): 8.798
- SEAP normalized (max=100) (Bcl2-v2, venetoclax 10000 nM): 26.337
- SEAP (Bcl2-v3, venetoclax 316 nM): 24.8752
- SEAP normalized (max=100) (Bcl2-v3, venetoclax 316 nM): 70.756
- SEAP (Bcl2-v3, venetoclax 1000 nM): 15.674
- SEAP normalized (max=100) (Bcl2-v3, venetoclax 1000 nM): 44.5837
- SEAP (Bcl2-v3, venetoclax 3160 nM): 8.48
- SEAP normalized (max=100) (Bcl2-v3, venetoclax 3160 nM): 24.1195
- SEAP (Bcl2-v3, venetoclax 10000 nM): 5.027
- SEAP normalized (max=100) (Bcl2-v3, venetoclax 10000 nM): 14.2997
- SEAP (Bcl2-v4, venetoclax 316 nM): 20.3221
- SEAP normalized (max=100) (Bcl2-v4, venetoclax 316 nM): 44.5121
- SEAP (Bcl2-v4, venetoclax 1000 nM): 12.5122
- SEAP normalized (max=100) (Bcl2-v4, venetoclax 1000 nM): 27.4059
- SEAP (Bcl2-v4, venetoclax 3160 nM): 8.91
- SEAP normalized (max=100) (Bcl2-v4, venetoclax 3160 nM): 19.5153
- SEAP (Bcl2-v4, venetoclax 10000 nM): 6.178
- SEAP normalized (max=100) (Bcl2-v4, venetoclax 10000 nM): 13.5319
- SEAP (Bcl2-v5, venetoclax 316 nM): 16.3938
- SEAP normalized (max=100) (Bcl2-v5, venetoclax 316 nM): 41.8642
- SEAP (Bcl2-v5, venetoclax 1000 nM): 8.859
- SEAP normalized (max=100) (Bcl2-v5, venetoclax 1000 nM): 22.6219
- SEAP (Bcl2-v5, venetoclax 3160 nM): 8.087
- SEAP normalized (max=100) (Bcl2-v5, venetoclax 3160 nM): 20.652
- SEAP (Bcl2-v5, venetoclax 10000 nM): 5.778
- SEAP normalized (max=100) (Bcl2-v5, venetoclax 10000 nM): 14.7539
- SEAP (Bcl2-v6, venetoclax 316 nM): 25.9953
- SEAP normalized (max=100) (Bcl2-v6, venetoclax 316 nM): 62.1077

Source: paper PMC11062894, “Protein-based bandpass filters for controlling cellular signaling with chemical inputs” (Nature Chemical Biology, 2023)
